Experimental data from patent US9296728B2, “Therapeutic compounds” (Regents of the University of Minnesota, priority 2012, dated 2016).

Experiments:
[1] = Toxicity study in BALB/c nude mice containing WiDr colorectal adenocarcinoma xenograft (body weight); assay type: in vivo; conditions: BALB/c nude mice with WiDr xenograft
Method: Female BALB/c nude mice weighing ˜20 g were taken and 5.0 10^6 WiDr cancer cells were implanted into their right flanks with a 1:1 mixture of 0.1 mL PBS and matrigel. The tumor was allowed to grow to a size of ˜150 cubic millimeters (14 days). The mice were randomly chosen by chance and assigned into 5 groups (6 mice per group), one group being the control group to which tumor was allowed to grow without any drug administration (food only). The drugs were administered twice daily by P.O. or I.P. Group 1 mice were administered orally with 50 mg/kg of Compound 20. Groups 2, 3 and 4 mice were treated via IP with 10 mg/kg Compound 20, 8 mg/kg of Compound 14 and 238 mg/kg CHC respectively. Body weight changes were recorded every two days for 3 weeks.

[2] = test system: WiDr xenograft tumor model; assay: Anticancer efficacy in Balb/c nude mice, WiDr xenograft (Example 8); assay type: in vivo; conditions: BALB/c nude mice with WiDr xenograft, 50-100 mg/Kg p.o. or i.p.
Method: Female BALB/c nude mice weighing ˜20 g were taken and 5.0 10^6 WiDr cancer cells were implanted into their right flanks with 1:1 mixture of 0.1 mL PBS and matrigel. The mice were arbitrarily chosen by chance and assigned into 7 groups (6 animals/group) and the treatment was started from the same day of the implantation of cancer cells. Mice in group 1 were orally administered two times daily with 100 mg/Kg of Compound 20. Mice in group 2 were orally administered four times per day with 50 mg/Kg of Compound 20. Group 3 mice were injected intraperitoneally 2 times per day with 100 mg/Kg of Compound 20. Group 4 mice were injected intraperitoneally one time per day with 100 mg/Kg and group 5 mice were injected intraperitoneally 2 times per day with 50 mg/Kg of Compound 20. Group 6 was treated with 0.2 mL of 2% DMSO in water intraperitoneally 4 times daily and group 7 mice were assigned as the control group to which tumor was allowed to grow without any drug administration (food only). The tumor volume was recorded every two days using the formula
[formula] where a is the long diameter of the tumor and b is the short diameter of the tumor. […] The inhibition rate was determined using the formula:
[formula] where C is average tumor weight of control group, T is average tumor weight of test group. […] The inhibition rate was determined using the above formula.

COc1cc(N(c2ccccc2)c2ccccc2)ccc1/C=C(\C#N)C(=O)O [Compound 20]
Weight in grams (Day 0) ([1]; 10 mg/kg i.p. twice daily): 21.93 grams | Weight in grams (Day 22) ([1]; 10 mg/kg i.p. twice daily): 23.38 grams | Weight in grams (Day 0) ([1]; 50 mg/kg p.o. twice daily): 21.85 grams | Weight in grams (Day 22) ([1]; 50 mg/kg p.o. twice daily): 23.01 grams | systemic toxicity (inference from Example 8) [2]: without much systemic toxicity
